Measurements reported in BindingDB's records for doi:10.7270/Q2KH0KWR (Burnham Center For Chemical Genomics, 2012).

molecular target: T1, Tyrosine-protein phosphatase non-receptor type 5 (Homo sapiens, UniProt P54829); experiment: STEP phosphatase inhibitor potency, dose response, orthogonal assay for STEP inhibitor project, biochemical, colorimetric absorbance (AID 624207); settings: not given
T1 sequence (P54829 whole entry): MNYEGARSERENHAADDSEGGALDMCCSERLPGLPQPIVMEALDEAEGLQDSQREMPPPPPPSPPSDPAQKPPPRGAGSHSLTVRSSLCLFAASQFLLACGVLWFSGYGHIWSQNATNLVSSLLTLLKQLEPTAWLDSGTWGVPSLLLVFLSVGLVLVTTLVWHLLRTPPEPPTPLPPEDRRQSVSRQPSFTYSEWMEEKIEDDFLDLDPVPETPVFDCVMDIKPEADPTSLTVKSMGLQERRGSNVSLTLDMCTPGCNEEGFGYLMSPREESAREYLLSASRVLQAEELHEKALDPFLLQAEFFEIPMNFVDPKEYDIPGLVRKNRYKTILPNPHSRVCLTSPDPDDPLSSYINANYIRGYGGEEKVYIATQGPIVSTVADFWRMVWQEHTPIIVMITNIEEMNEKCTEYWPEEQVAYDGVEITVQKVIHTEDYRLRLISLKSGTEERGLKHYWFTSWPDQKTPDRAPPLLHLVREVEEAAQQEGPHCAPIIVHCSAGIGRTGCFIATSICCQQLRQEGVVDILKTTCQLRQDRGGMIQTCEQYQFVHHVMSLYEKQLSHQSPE

**Q.** Which IC50 does the source give for `Nc1ccc2c(O)cc(S(=O)(=O)O)cc2c1` here?
**A.** Its IC50 is greater than 80 µM.

**Q.** `S=C1N=C(C23CC4CC(CC(C4)C2)C3)CC(c2ccc3c(c2)OCO3)N1` (stereo not drawn) was tested. Which IC50 did it give?
**A.** The IC50 was greater than 80 µM.

**Q.** `CCc1ccc(NC(=O)Cc2cn(C)c3ccccc23)cc1` was tested. Which IC50 did it give?
**A.** Its IC50 is greater than 80 µM.

**Q.** Which IC50 does the source give for `Cc1ccc(-c2nc3ncccc3o2)cc1NC(=O)CC(C)C` here?
**A.** The IC50 was greater than 80 µM.

**Q.** Which IC50 does the source give for `O=C(N/N=C/c1ccncc1)c1cccc(S(=O)(=O)Nc2ccc(Cl)cc2)c1` here?
**A.** Its IC50 is 19.7 µM.

**Q.** `COc1cc(NC(=S)N2CCN(C)CC2)c(OC)cc1Cl` was tested. Which IC50 did it give?
**A.** The IC50 was greater than 80 µM.

**Q.** `CC(=O)N1CCC(N(CCN2CCOCC2)C(=S)Nc2ccc(C)cc2)CC1` was tested. Which IC50 did it give?
**A.** Its IC50 is greater than 80 µM.

**Q.** Which IC50 does the source give for `COc1ccc(NC(=O)c2cc(=O)c3ccccc3o2)cc1Cl` here?
**A.** Its IC50 is greater than 80 µM.

**Q.** For `O=C1NN(c2cccc(Br)c2)C(=O)/C1=C\c1ccc(N2CCOCC2)cc1`, which IC50 is on record?
**A.** The IC50 was greater than 80 µM.

**Q.** For `Cc1ccc(S(=O)(=O)c2cnc3ccc(Cl)cc3c2O)cc1`, which IC50 is on record?
**A.** The IC50 was greater than 80 µM.

**Q.** With `O=C(C=Cc1ccc(Cl)cc1)NC(=S)Nc1ccc(C(=O)O)cc1` as the molecule, how does the IC50 read?
**A.** Its IC50 is greater than 80 µM.

**Q.** `CC(/N=N/c1ccc(S(N)(=O)=O)cc1[N+](=O)[O-])c1cccs1` (stereo not drawn) was tested. Which IC50 did it give?
**A.** Its IC50 is greater than 80 µM.

**Q.** With `CC(=O)c1ccc(S(=O)(=O)Nc2cccc(-n3cnnn3)c2)cc1` as the molecule, how does the IC50 read?
**A.** The IC50 was greater than 80 µM.

**Q.** For `NN=C1C(Cl)=C(Cl)C(Cl)=C1Cl`, which IC50 is on record?
**A.** The IC50 was greater than 80 µM.

**Q.** With `Cc1ccc(S(=O)(=O)N2CCCCC2)cc1NC(=O)c1ccc(=O)[nH]c1` as the molecule, how does the IC50 read?
**A.** Its IC50 is greater than 80 µM.

**Q.** With `COc1ccc(NC(S)=NCCN2CCC(C)CC2)cc1Cl` [1-(3-chloro-4-methoxyphenyl)-3-[2-(4-methyl-1-piperidinyl)ethyl]thiourea] as the molecule, how does the IC50 read?
**A.** Its IC50 is 18.2 µM.

**Q.** With `COCCCN(C(S)=Nc1c(C)cc(C)cc1C)C(C)c1ccccn1` (stereo not drawn) [1-(3-methoxypropyl)-1-[1-(2-pyridinyl)ethyl]-3-(2,4,6-trimethylphenyl)thiourea] as the molecule, how does the IC50 read?
**A.** Its IC50 is greater than 80 µM.

**Q.** How did the IC50 turn out when `CC(C)OCCCN=C(S)Nc1ccc(S(N)(=O)=O)cc1` [1-(3-propan-2-yloxypropyl)-3-(4-sulfamoylphenyl)thiourea] was run?
**A.** Its IC50 is greater than 80 µM.

**Q.** Which IC50 does the source give for `Cc1cc(C)c(NC(S)=NCC2CCN(C(C)c3ccccc3)C2)c(C)c1` (stereo not drawn) [1-[[1-(1-phenylethyl)-3-pyrrolidinyl]methyl]-3-(2,4,6-trimethylphenyl)thiourea] here?
**A.** Its IC50 is 12.1 µM.

**Q.** How did the IC50 turn out when `Cc1c(C)n(C(=O)CSc2nc3ccccc3[nH]2)c2ccccc12` [2-(1H-benzimidazol-2-ylthio)-1-(2,3-dimethyl-1-indolyl)ethanone] was run?
**A.** Its IC50 is greater than 80 µM.

**Q.** Which IC50 does the source give for `CCOc1cc(CN=Nc2nc(O)c(CC(=O)O)s2)ccc1OCc1ccc(Cl)cc1Cl` [2-[2-[(N''E)-N''-[4-(2,4-dichlorobenzyl)oxy-3-ethoxy-benzylidene]hydrazino]-4-keto-2-thiazolin-5-yl]acetic acid] here?
**A.** The IC50 was greater than 80 µM.

**Q.** Which IC50 does the source give for `O=C(O)c1ccc2c(c1)C(=O)N(c1cccc(-c3nc4ccccc4s3)c1)C2=O` [2-[3-(1,3-benzothiazol-2-yl)phenyl]-1,3-bis(oxidanylidene)isoindole-5-carboxylic acid] here?
**A.** Its IC50 is greater than 80 µM.

**Q.** `CCN1CCN(C(=S)c2ccc(OCC(=O)NCc3ccccc3)cc2)CC1` [2-[4-(4-ethylpiperazin-1-yl)carbothioylphenoxy]-N-(phenylmethyl)ethanamide] was tested. Which IC50 did it give?
**A.** The IC50 was greater than 80 µM.

**Q.** Which IC50 does the source give for `CCc1ccc(NC2=NC(=O)C(=Cc3ccc(OCC(=O)O)cc3)S2)cc1` [2-[4-[(Z)-[2-(4-ethylanilino)-4-oxo-5-thiazolylidene]methyl]phenoxy]acetic acid] here?
**A.** The IC50 was 37.1 µM.

**Q.** How did the IC50 turn out when `Cc1cccc(Nc2nn3c(=O)c4ccccc4nc3s2)c1` [2-[(3-methylphenyl)amino]-5H-[1,3,4]thiadiazolo[2,3-b]quinazolin-5-one] was run?
**A.** The IC50 was 8.34 µM.

**Q.** For `Cc1ccc(-c2nc(NC(=O)CSc3cc(C)c4ccccc4n3)ns2)cc1` [2-[(4-methyl-2-quinolyl)thio]-N-[5-(p-tolyl)-1,2,4-thiadiazol-3-yl]acetamide], which IC50 is on record?
**A.** The IC50 was greater than 80 µM.

**Q.** With `COc1cc(/C=C2/SC(=S)N(CC(=O)O)C2=O)ccc1OCC(=O)Nc1ccc(C)c(C)c1` [2-[(5E)-5-[[4-[2-[(3,4-dimethylphenyl)amino]-2-oxidanylidene-ethoxy]-3-methoxy-phenyl]methylidene]-4-oxidanylidene-2-sulfanylidene-1,3-thiazolidin-3-yl]ethanoic acid] as the molecule, how does the IC50 read?
**A.** The IC50 was greater than 80 µM.

**Q.** How did the IC50 turn out when `CCCCCn1c(N)c(-c2nc3ccccc3o2)c2c([N+](=O)[O-])nn(C)c(=O)c21` [2-amino-1-amyl-3-(1,3-benzoxazol-2-yl)-6-methyl-4-nitro-pyrrolo[2,3-d]pyridazin-7-one] was run?
**A.** Its IC50 is greater than 80 µM.

**Q.** For `O=C(NN=Cc1ccc(F)cc1)c1cc(-c2ccc3c(c2)OCO3)n[nH]1` [3-(1,3-benzodioxol-5-yl)-N-[(E)-(4-fluorobenzylidene)amino]-1H-pyrazole-5-carboxamide], which IC50 is on record?
**A.** The IC50 was greater than 80 µM.

**Q.** How did the IC50 turn out when `COc1ccc(NC(=S)N(CCC(C)C)C2CCN(C(C)C)CC2)cc1Cl` [3-(3-chloranyl-4-methoxy-phenyl)-1-(3-methylbutyl)-1-(1-propan-2-ylpiperidin-4-yl)thiourea] was run?
**A.** Its IC50 is 10.6 µM.

**Q.** `COc1ccc(-n2nc(C(=O)NCC(=O)Nc3ccccn3)c3ccccc3c2=O)cc1Cl` [3-(3-chloranyl-4-methoxy-phenyl)-4-oxidanylidene-N-[2-oxidanylidene-2-(pyridin-2-ylamino)ethyl]phthalazine-1-carboxamide] was tested. Which IC50 did it give?
**A.** Its IC50 is greater than 80 µM.

same assay, conditions: inactive by the depositor's call

**Q.** For `O=S(=O)(O)c1cc(O)c2cc(Nc3ccccc3)ccc2c1`, which IC50 is on record?
**A.** The IC50 was 24.1 µM.

**Q.** For `O=S(=O)(Nc1ccc(Cl)cc1)c1ccc(N2CCOCC2)c(NC(=S)NCCN2CCOCC2)c1`, which IC50 is on record?
**A.** Its IC50 is 21.3 µM.

**Q.** For `O=C(CCc1ccccc1)NNC(=O)c1ccc(NC(=O)c2ccccc2)cc1`, which IC50 is on record?
**A.** Its IC50 is 37.9 µM.

**Q.** `COc1cccc(Nc2nn3c(=O)c4ccccc4nc3s2)c1` was tested. Which IC50 did it give?
**A.** The IC50 was 58.2 µM.

**Q.** `CCC(CC)c1nnc(NC(=O)c2cc(C(=O)OC)cc([N+](=O)[O-])c2)s1` was tested. Which IC50 did it give?
**A.** Its IC50 is 21.8 µM.

**Q.** Which IC50 does the source give for `CN1CCC2(CC1)N=C(c1ccc(F)cc1)C(=S)N2` here?
**A.** Its IC50 is 71.7 µM.

**Q.** For `Cc1ccc(N=C(S)N(CCN(C)C)Cc2cccs2)c(C)c1`, which IC50 is on record?
**A.** Its IC50 is 56 µM.

**Q.** With `S=C(NCCCN1CCOCC1)Nc1ccc(-c2nc3ccccc3[nH]2)cc1` as the molecule, how does the IC50 read?
**A.** The IC50 was 79.6 µM.

**Q.** Which IC50 does the source give for `NC(=O)C1(N2CCCCC2)CCN(C(=S)Nc2ccc(S(N)(=O)=O)cc2)CC1` [1'-({[4-(aminosulfonyl)phenyl]amino}carbonothioyl)-1,4'-bipiperidine-4'-carboxamide] here?
**A.** The IC50 was 25.9 µM.

**Q.** Which IC50 does the source give for `S=C(NCCc1ccccc1)Nc1c(Cl)cccc1Cl` [1-(2,6-dichlorophenyl)-3-(2-phenylethyl)thiourea] here?
**A.** The IC50 was 41.2 µM.

**Q.** With `COc1ccc(NC(=S)NCCCN2CCCC2)cc1Cl` [1-(3-chloro-4-methoxyphenyl)-3-[3-(1-pyrrolidinyl)propyl]thiourea] as the molecule, how does the IC50 read?
**A.** Its IC50 is 31.1 µM.

**Q.** How did the IC50 turn out when `CN1CCN(C(=S)c2ccc(Br)cc2)CC1` [1-[(4-bromophenyl)carbonothioyl]-4-methylpiperazine] was run?
**A.** Its IC50 is 42 µM.

**Q.** `Cc1nn(C)cc1C=NNC(=S)Nc1ccccc1` [1-[(E)-(1,3-dimethylpyrazol-4-yl)methylideneamino]-3-phenyl-thiourea] was tested. Which IC50 did it give?
**A.** Its IC50 is 57.9 µM.

**Q.** `CCCN(CC(=O)Nc1ccccc1OC)C(=O)Cc1ccc2c(c1)CCC2` [2-(2,3-dihydro-1H-inden-5-yl)-N-[2-[(2-methoxyphenyl)amino]-2-oxidanylidene-ethyl]-N-propyl-ethanamide] was tested. Which IC50 did it give?
**A.** Its IC50 is 57 µM.

**Q.** For `CCCc1cc(=O)oc2cc(OCC(=O)Nc3ccc(S(N)(=O)=O)cc3)ccc12` [2-(2-oxo-4-propylchromen-7-yl)oxy-N-(4-sulfamoylphenyl)acetamide], which IC50 is on record?
**A.** The IC50 was 30.6 µM.

**Q.** `Cc1c(CC(=O)O)c(=O)oc2c(C)c(OCc3ccccc3Br)ccc12` [2-[7-[(2-bromophenyl)methoxy]-4,8-dimethyl-2-oxochromen-3-yl]acetic acid] was tested. Which IC50 did it give?
**A.** The IC50 was 26.3 µM.

**Q.** `Cc1ccc(-n2c(C)nc3oc4ccccc4c(=O)c3c2=O)cc1` [2-methyl-3-(4-methylphenyl)[1]benzopyrano[2,3-d]pyrimidine-4,5-dione] was tested. Which IC50 did it give?
**A.** The IC50 was 76.5 µM.
